Measured values from US8912179B2, “Heterocyclyl compounds as histamine H3 receptor ligands” (Suven Life Sciences Limited, priority 2010, dated 2014).
Where a name gives a salt, the structure may show the parent alone.

Tests used:
[1] = molecular target: Histamine H3 receptor (UniProt Q9Y5N1); test: Binding assay for human or rat histamine H3 receptor ([3H] R-α-methylhistamine); conditions: [3H] R-α-methylhistamine 3.0 nM; rat brain frontal cortex or recombinant human receptor in CHO cells (not specified which)
Method: Compounds can be evaluated according to the following procedures.
• Receptor source: Rat brain frontal cortex or recombinant human cDNA expressed in CHO cells • Radioligand: [^3H] R-α-methylhistamine • Final ligand concentration—[3.0 nM] • Non-specific determinant: R-α-methylhistamine (100 uM) • Reference compound: R-α-methylhistamine • Positive control: R-α-methylhistamine Incubation Conditions:
Increasing concentrations of test compounds or standard were incubated with membrane receptors and radioligand in 5 mM MgCl2 and 50 mM TRIS-HCl (pH 7.4) for 60 minutes at room temperature. The reaction was terminated by rapid vacuum filtration onto the glass fiber filters. Radioactivity trapped onto the filters was determined and compared to the control values in order to ascertain any interactions of the test compound(s) with either cloned human or rat receptor binding site.

[2] = Rodent pharmacokinetic study; type: in vivo, Male Wistar rats; conditions: whole blood, Wistar male rat; for AUC(0-t) / Cmax / Tmax / half-life: water, blood
Method: Male Wistar rats (230-280 grams) obtained from NIN (National Institute of Nutrition, Hyderabad, India) were used as an experimental animal. Three animals were housed in each cage. Animals were kept fasted over night and maintained on a 12 hours light/dark cycle. Three rats were dosed New chemical entity (NCE) orally (3 or 10 mg/kg) and intravenously (1 or 5 mg/kg) on day 0 and day 2.
At each time point blood was collected by jugular vein. Blood was stored at 2-8° C. until analysis. The concentrations of the NCE compound in blood were determined using LC-MS/MS method. Schedule time points: Pre dose 0.08, 0.25, 0.5, 1, 2, 4, 6, 8 and 24 hours after dosing (n=3). The NCE compounds were quantified in blood by partially validated LC-MS/MS method using acetonitrile precipitation technique. NCE compounds were quantified in the calibration range of 1-2000 ng/mL in blood. Study samples were analyzed using calibration samples in the batch and quality control samples spread across the batch.
Pharmacokinetic parameters were calculated by non-compartmental model using software WinNonlin version 5.0.1.

[3] = tested on: rats; test: Morris water maze, reversal of scopolamine induced amnesia; type: in vivo, rat; conditions: p.o., dose giving reversal
Method: The cognition-enhancing properties of compounds of this invention were estimated by using this model.
The water maze apparatus consisted of a circular pool (1.8 m diameter, 0.6 m high) constructed in black Perspex (TSE systems, Germany) filled with water (24±2° C.) and positioned underneath a wide-angled video camera to track animal. The 10 cm^2 perspex platform, lying 1 cm below the water surface, was placed in the centre of one of the four imaginary quadrants, which remained constant for all rats. The black Perspex used in the construction of the maze and platform offered no intramaze cues to guide escape behavior. By contrast, the training room offered several strong extramaze visual cues to aid the formation of the spatial map necessary for escape learning. An automated tracking system, [Videomot 2 (5.51), TSE systems, Germany] was employed. This program analyzes video images acquired via a digital camera and an image acquisition boards that determined path length, swim speed and the number of entries and duration of swim time spent in each quadrant of the water maze.

| Compound | Ki [1] [nM] | other results |
| --- | --- | --- |
| CC(C)CC(=O)N1CCc2nc(OC3CCN(C4CCC4)CC3)sc2C1 [Example 7, 1-[2-(1-Cyclobutyl-piperidin-4-yloxy)-6,7-dihydro-4H-thiazolo[5,4-c]pyridin-5-yl]-3-methyl-butan-1-one tartrate] | 10.5 | – |
| CS(=O)(=O)N1CCc2nc(OC3CCN(C4CCC4)CC3)sc2C1 [Example 21, 2-(1-Cyclobutyl-piperidin-4-yloxy)-5-methanesulfonyl-,6,7-dihydro-4H-thiazolo[5,4-c]pyridine] | 22.6 | – |
| O=C(CC1CC1)N1CCc2nc(OC3CCN(C4CCC4)CC3)sc2C1 [Example 19, 1-[2-(1-Cyclobutyl-piperidin-4-yloxy)-6,7-dihydro-4H-thiazolo[5,4-c]pyridin-5-yl]-2-cyclopropyl-ethanone] | 12.3 | – |
| O=C(c1cccnc1)N1CCc2nc(OC3CCN(C4CCC4)CC3)sc2C1 [Example 26, [2-(1-Cyclobutyl-piperidin-4-yloxy)-6,7-dihydro-4H-thiazolo[5,4-c]pyridin-5-yl]-pyridin-3-yl-methanone tartrate] | 32.5 | – |
| CC(C)N1CCC(Oc2nc3c(s2)CN(C(=O)C2CC2)CC3)CC1 [Example 9, Cyclopropyl-[2-(1-isopropyl-piperidin-4-yloxy)-6,7-dihydro-4H-thiazolo[5,4-c]pyridin-5-yl]-methanone tartrate] | 9.94 | – |
| COc1ccc(C(=O)N2CCc3nc(OC4CCN(C5CCC5)CC4)sc3C2)cc1 [Example 17, [2-(1-Cyclobutyl-piperidin-4-yloxy)-6,7-dihydro-4H-thiazolo[5,4-c]pyridin-5-yl]-(4-methoxy-phenyl)-methanone tartrate] | 21.2 | – |
| O=C(c1ccccc1F)N1CCc2nc(OC3CCN(C4CCC4)CC3)sc2C1 [Example 6, [2-(1-Cyclobutyl-piperidin-4-yloxy)-6,7-dihydro-4H-thiazolo[5,4-c]pyridin-5-yl]-(2-fluoro-phenyl)-methanone tartrate] | 13.4 | – |
| O=C(N1CCOCC1)N1CCc2nc(OC3CCN(C4CCC4)CC3)sc2C1 [Example 29, [2-(1-Cyclobutyl-piperidin-4-yloxy)-6,7-dihydro-4H-thiazolo[5,4-c]pyridin-5-yl]-morpholin-4-yl-methanone tartrate] | 11.3 | – |
| NC(=O)c1ccc(N2CCc3nc(OC4CCN(C5CCC5)CC4)sc3C2)nc1 [Example 31, 6-[2-(1-Cyclobutyl-piperidin-4-yloxy)-6,7-dihydro-4H-thiazolo[5,4-c]pyridin-5-yl]-nicotinamide] | 1.62 | – |
| CC(C)N1CCC(Oc2nc3c(s2)CN(C(=O)C2CCC2)CC3)CC1 [Example 8, Cyclobutyl-[2-(1-isopropyl-piperidin-4-yloxy)-6,7-dihydro-4H-thiazolo[5,4-c]pyridin-5-yl]-methanone] | 7.69 | – |
| O=C(CN1CCCCC1)N1CCc2nc(OC3CCN(C4CCC4)CC3)sc2C1 [Example 18, 1-[2-(1-Cyclobutyl-piperidin-4-yloxy)-6,7-dihydro-4H-thiazolo[5,4-c]pyridin-5-yl]-2-piperidin-1-yl-ethanone tartrate] | 6.96 | – |
| O=C(C1CC1)N1CCc2nc(OC3CCC(C4CCC4)CC3)sc2CC1 (stereo not drawn) [Example 2, [2-(4-Cyclobutyl-cyclohexyloxy)-4,5,7,8-tetrahydro-thiazolo[5,4-d]azepin-6-yl]-cyclopropyl-methanone tartrate] | 2 | – |
| O=C(C1CCC1)N1CCc2nc(OC3CCN(C4CC4)CC3)sc2C1 [Example 11, Cyclobutyl-[2-(1-cyclopropyl-piperidin-4-yloxy)-6,7-dihydro-4H-thiazolo[5,4-c]pyridin-5-yl]-methanone tartrate] | 12 | – |
| FC(F)(F)c1ccc(N2CCc3nc(OC4CCN(C5CCC5)CC4)sc3C2)cn1 [Example 23, 2-(1-Cyclobutyl-piperidin-4-yloxy)-5-(2-trifluoromethyl-pyridin-5-yl)-,6,7-dihydro-4H-thiazolo[5,4-c]pyridine] | 0.3 | – |
| CC(C)N1CCC(Oc2nc3c(s2)CCN(C(=O)C2CC2)CC3)CC1 [Example 34, Cyclopropyl-[2-(1-isopropyl-piperidin-4-yloxy)-4,5,7,8-tetrahydro-thiazolo[5,4-d]azepin-6-yl]-methanone tartrate] | 15.6 | – |
| O=C(C1CC1)N1CCCc2nc(OC3CCN(C4CCC4)CC3)sc21 [Example 33, [2-(1-Cyclobutyl-piperidin-4-yloxy)-6,7-dihydro-5H-thiazolo[5,4-b]pyridin-4-yl]-cyclopropyl-methanone tartrate] | 15.4 | – |
| CCC(=O)NC1CCc2nc(OC3CCN(C4CCC4)CC3)sc2C1 (stereo not drawn) [Example 3, N-[2-(1-Cyclobutyl-piperidin-4-yloxy)-4,5,6,7-tetrahydro-benzothiazol-6-yl]-propionamide] | 26.7 | – |
| O=C(c1ccc(C(F)(F)F)nc1)N1CCc2nc(OC3CCN(C4CCC4)CC3)sc2C1 [Example 25, [2-(1-Cyclobutyl-piperidin-4-yloxy)-6,7-dihydro-4H-thiazolo[5,4-c]pyridin-5-yl]-(2-trifluoromethyl-pyridin-5-yl)-methanone] | 35.3 | – |
| O=C(N1CCCCC1)N1CCc2nc(OC3CCN(C4CCC4)CC3)sc2C1 [Example 30, [2-(1-Cyclobutyl-piperidin-4-yloxy)-6,7-dihydro-4H-thiazolo[5,4-c]pyridin-5-yl]-piperidin-1-yl-methanone hydrochloride] | 4.19 | – |
| O=S(=O)(c1ccccc1F)N1CCc2nc(OC3CCN(C4CCC4)CC3)sc2C1 [Example 20, 2-(1-Cyclobutyl-piperidin-4-yloxy)-5-(2-fluoro-benzenesulfonyl)-,6,7-dihydro-4H-thiazolo[5,4-c]pyridine tartrate] | 7.4 | – |
| c1cncc(N2CCc3nc(OC4CCN(C5CCC5)CC4)sc3C2)c1 [Example 27, 2-(1-Cyclobutyl-piperidin-4-yloxy)-5-pyridin-3-yl-,6,7-dihydro-4H-thiazolo[5,4-c]pyridine tartrate] | 0.75 | – |
| O=C(C1CCCC1)N1CCc2nc(OC3CCN(C4CCC4)CC3)sc2C1 [Example 32, [2-(1-Cyclobutyl-piperidin-4-yloxy)-6,7-dihydro-4H-thiazolo[5,4-c]pyridin-5-yl]-cyclopentyl-methanone tartrate] | 4.6 | – |
| O=C(C1CC1)N1CCc2nc(OC3CCN(C4CC4)CC3)sc2C1 [Example 10, Cyclopropyl-[2-(1-cyclopropyl-piperidin-4-yloxy)-6,7-dihydro-4H-thiazolo[5,4-c]pyridin-5-yl]-methanone tartrate] | 5.43 | – |
| O=C(c1ccncc1)N1CCc2nc(OC3CCN(C4CCC4)CC3)sc2C1 [Example 16, [2-(1-Cyclobutyl-piperidin-4-yloxy)-6,7-dihydro-4H-thiazolo[5,4-c]pyridin-5-yl]-pyridin-4-yl-methanone tartrate] | 33.5 | – |
| O=C(CN1CCOCC1)N1CCc2nc(OC3CCN(C4CCC4)CC3)sc2C1.O=C(O)C(O)C(O)C(=O)O [Example 12, 1-[2-(1-Cyclobutyl-piperidin-4-yloxy)-6,7-dihydro-4H-thiazolo[5,4-c]pyridin-5-yl]-2-morpholin-4-yl-ethanone tartrate] | 8.44 | AUC(0-t) ([2]; intravenous, 1 mg/kg): 334 ± 39 ng·h/mL; Cmax ([2]; intravenous, 1 mg/kg): 237 ± 38 ng/mL; Tmax ([2]; intravenous, 1 mg/kg): 0.08 h; half-life ([2]; intravenous, 1 mg/kg): 2.86 ± 0.82 h; bioavailability ([2]; per oral 3 mg/kg vs intravenous 1 mg/kg): 43 ± 17%; AUC(0-t) ([2]; per oral, 3 mg/kg): 417 ± 120 ng·h/mL; Cmax ([2]; per oral, 3 mg/kg): 151 ± 18 ng/mL; Tmax ([2]; per oral, 3 mg/kg): 0.83 ± 0.29 h; half-life ([2]; per oral, 3 mg/kg): 2.85 ± 0.38 h; Reversal of Scopolamine Induced amnesia [3]: ≧20 mg/kg, p.o. |
| O=C(C1CC1)N1CCCC(Oc2nc3c(s2)CN(C2CCC2)CC3)C1 (stereo not drawn) [Example 14, [3-(5-Cyclobutyl-,6,7-dihydro-4H-thiazolo[5,4-c]pyridin-2-yloxy)-piperidin-1-yl]-cyclopropyl-methanone tartrate] | 23.6 | – |
